Publication PMC10134988, “An Arylbenzofuran, Stilbene Dimers, and Prenylated Diels–Alder Adducts as Potent Diabetic Inhibitors from Morus bombycis Leaves” (Antioxidants, 2023)
Like-named read-outs stand apart in the source and are kept apart here.

Columns and labels:
HAS-AGEs formation = experiment: Inhibition of HSA-AGEs formation; format: biochemical; settings: mean ± SD, triplicate
Description: (§1) The inhibitory activity of HRAR was examined according to previous literature with modifications. First, 150 µL of 100 mM sodium phosphate buffer (pH 6.2), 20 µL of 0.3 mM NADPH as the co-enzyme, 5 µL of the test samples (50, 10, and 2 mg/mL or 100% DMSO), and 20 µL of 10 mM DL-glyceraldehyde as the substrate were added to each of the 96 wells (final volume 200 µL). Quercetin was used as a positive control. The inhibitory activity of AGEs formation was examined according to the modified method. Aminoguanidine hydrochloride was used as a positive control for the AGEs formation inhibition assay.

BSA-AGEs formation = experiment: Inhibition of BSA-AGEs formation; format: biochemical; settings: mean ± SD, triplicate
Description: as §1

[1] = target: T1, human recombinant aldose reductase (HRAR) (Homo sapiens, UniProt P15121); experiment: HRAR inhibitory activity; format: biochemical
T1 construct: purchased Wako Chemicals (Osaka, Japan)
Excerpt: (§2) Protein tyrosine phosphatase 1B (PTP1B) was purchased from ENZO (Farmingdale, NY, USA). Human recombinant AR (0.4 units) was purchased from Wako Chemicals (Osaka, Japan). Citric acid trisodium salt dehydrate, citric acid monohydrate, sodium carbonate anhydrous, sodium chloride, sodium phosphate dibasic anhydrous, and sodium phosphate monobasic dehydrate were purchased from SAMCHUN (Seoul, Korea). Peroxynitrite (ONOO^−), 3-[(3-cholamidopropyl)dimethylammonio]-1-propanesulfonate (CHAPS), and sodium azide were purchased from Bio-Rad Laboratories Calbiochem (San Diego, CA, USA), GENERAY BIOTECH (Shanghai, China), and JUNSEI (Chuoku, Tokyo, Japan), respectively.
as §1, with “Quercetin was used as a positive control.” left out

α-glucosidase [2] = experiment: α-Glucosidase inhibitory activity; format: biochemical, Saccharomyces cerevisiae; settings: isolated compounds; mean ± SD, triplicate
Excerpt: as §2
(§3) The enzyme inhibition study was executed spectrophotometrically following the previous literature.

[3] = ONOO− scavenging activity (DHR123); settings: mean ± SD, triplicate; read-out: Peroxynitirite IC50
Description: ONOO^− scavenging activity was measured using the method in previous literature involving measuring highly fluorescent rhodamine 123 that is converted from non-fluorescent DHR123 in the presence of ONOO^− [49].

PTP1B [4] = target: T2, PTP1B (Homo sapiens, UniProt P18031); experiment: PTP1B enzyme kinetics (Lineweaver–Burk and Dixon plots); format: biochemical; settings: substrate pNPP; for Ki: Dixon plots, read-out: PTP1B Inhibition Constant (Ki); for PTP1B Inhibition Mode: Lineweaver–Burk plots
T2 construct: purchased ENZO (Farmingdale, NY, USA)
T2 sequence (P18031 1-435): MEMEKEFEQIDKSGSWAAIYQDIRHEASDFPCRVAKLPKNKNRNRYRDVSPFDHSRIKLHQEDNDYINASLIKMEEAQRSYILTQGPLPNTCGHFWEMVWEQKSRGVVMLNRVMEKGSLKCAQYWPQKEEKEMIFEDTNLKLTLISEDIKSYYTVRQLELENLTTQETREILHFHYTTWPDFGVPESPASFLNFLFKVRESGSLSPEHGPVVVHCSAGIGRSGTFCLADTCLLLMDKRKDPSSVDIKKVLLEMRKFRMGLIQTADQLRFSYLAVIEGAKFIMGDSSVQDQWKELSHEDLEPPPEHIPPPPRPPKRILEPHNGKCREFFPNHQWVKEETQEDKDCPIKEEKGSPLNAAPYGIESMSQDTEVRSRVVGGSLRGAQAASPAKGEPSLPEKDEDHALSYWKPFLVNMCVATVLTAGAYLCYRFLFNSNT
Description: (§4) The two kinetic methods, Lineweaver–Burk plots and Dixon plots, were used to determine the inhibition mechanism. The α-glucosidase inhibition type was measured at various concentrations of substrate (pNPG, 0.625, 1.25, and 2.5 mM) and several concentrations of test compounds (0.8, 0.4, and 0.16 μM for compound 4; 2, 0.8, and 0.16 μM for 6; 3.17, 1.59, and 0.63 μM for 7; 1.54, 1.04, and 0.62 μM for 8) using Lineweaver–Burk double reciprocal plots. The PTP1B enzyme inhibition type was also measured at various concentrations of substrate (pNPP, 0.5, 1.0, 2.0, and 4.0 mM) and several concentrations of test compounds (4.0, 2.0, and 0.8 μM for compound 4; 2.0, 0.8, and 0.16 μM for 6; 15.87, 7.93, 3.17, and 0.63 μM for 7; 6.17, 3.08, 1.54 and 0.78 μM for 8) using Lineweaver–Burk double reciprocal plots. Dixon plots were used to determine the inhibition constant (Ki) of each compound by testing the effects of substrate and compounds against the α-glucosidase and PTP1B under the same conditions as described above.
(§5) Enzyme kinetic analysis was performed with different concentrations of substrate (pNPG and pNPP) and various concentrations of compounds to determine the type of inhibition on the compounds. Lineweaver–Burk and Dixon plots were used to determine the type of inhibition in enzyme kinetics. Each line of inhibitors intersected at the xy-side, indicating mixed-type inhibitors. On the other hand, the lines penetrated the same point on the x-intercept, representing non-competitive inhibitors in Lineweaver–Burk plots, and the Dixon plot was also used to calculate the Ki value for the enzyme inhibitor complex with the value shown on the x-axis indicating the -Ki value.

α-glucosidase [5] = experiment: α-Glucosidase enzyme kinetics (Lineweaver–Burk and Dixon plots); format: biochemical, Saccharomyces cerevisiae; settings: substrate pNPG; for Ki: Dixon plots, read-out: α-Glucosidase Inhibition Constant (Ki); for α-Glucosidase Inhibition Mode: Lineweaver–Burk plots
Description: as §4, §5

PTP1B [6] = target: T2, PTP1B; experiment: PTP1B inhibitory activity; format: biochemical
Excerpt: as §2, §3

[7] = ABTS radical scavenging activity; settings: Table 1; mean ± SD, triplicate
Description: (§6) The ABTS and DPPH radical scavenging activity of the extract and each fraction obtained from M. bombycis leaves were measured according to previous literature with modifications.

[8] = DPPH radical scavenging activity; settings: Table 1; mean ± SD, triplicate
Description: as §6

[9] = one result of a single experiment, read-out: HRAR IC50
[10] = isolated compounds, mean ± SD, triplicate, read-out: PTP1B IC50

Row | Compound | IC50 (HAS-AGEs formation) | IC50 (BSA-AGEs formation) | IC50 [1, 9] | IC50 (α-glucosidase [2]) | IC50 [3] | Ki (PTP1B [4]) | PTP1B Inhibition Mode (PTP1B [4]) | Ki (α-glucosidase [5]) | α-Glucosidase Inhibition Mode (α-glucosidase [5]) | IC50 (PTP1B [6]; [10]) | also measured
1 | Cl.N=C(N)NN [Aminoguanidine, aminoguanidine hydrochloride, reference compound] | 504 ± 14.9 µM | 581 ± 28.7 µM | – | – | – | – | – | – | – | – | BSA-AGEs IC50 (BSA-AGEs formation; subfractions of EtOAc fraction, Table S1): 36.73 ± 1.64 µg/mL
2 | Oc1cc(O)cc(-c2cc3cc4c(cc3o2)OC(c2cc(O)cc(O)c2)C(c2ccc(O)cc2O)O4)c1 (stereo not shown) [Austrafuran C (6), austrafuran C] | 6.15 ± 0.25 µM | 13.7 ± 0.55 µM | 26.8 µM | 1.01 ± 0.17 µM | 2.76 ± 0.25 µM | 1.45 µM | Mixed | 0.75 µM | Mixed | 1.69 ± 0.02 µM | PTP1B Inhibition Mode (PTP1B [4]; listed as 6): mixed-type inhibition
3 | CC(C)=CCc1c(O)ccc(C(=O)[C@H]2[C@@H](c3c(O)cc(-c4cc5ccc(O)cc5o4)cc3O)C=C(C)C[C@@H]2c2ccc(O)cc2O)c1O [Chalcomoracin (8), chalcomoracin] | 113 ± 3.62 µM | 137.6 ± 0.33 µM | 265 µM | 0.98 ± 0.03 µM | 3.03 ± 0.53 µM | 4.41 µM | Non-competitive | 1.71 µM | Mixed | 2.06 ± 0.39 µM | PTP1B Inhibition Mode (PTP1B [4]; listed as 8): non-competitive-type inhibition
4 | CC(C)(S)[C@H](N)C(=O)O [L-Penicillamine, reference compound] | – | – | – | – | 0.62 ± 0.17 µM | – | – | – | – | – | –
5 | O=C1O[C@H]([C@@H](O)CO)C(O)=C1O [L-ascorbic acid] | – | – | – | – | – | – | – | – | – | – | ABTS IC50 [7]: 3.38 ± 0.19 µg/mL; DPPH IC50 [8]: 2.82 ± 0.57 µg/mL
6 | Oc1cc(O)cc(-c2cc3c4c(c(O)cc3o2)OC(c2ccc(O)cc2O)C4c2cc(O)cc(O)c2)c1 (stereo not shown) [Macrourin B (4), macrourin B] | 7.98 ± 0.62 µM | 9.44 ± 0.18 µM | < 4 µM | 0.44 ± 0.03 µM | 2.61 ± 0.13 µM | 1.54 µM | Mixed | 0.19 µM | Mixed | 2.5 ± 0.17 µM | PTP1B Inhibition Mode (PTP1B [4]; listed as 4): mixed-type inhibition
7 | Oc1cc(O)cc(-c2cc3ccc(O)cc3o2)c1 [Moracin M (5), moracin M] | 2.07 ± 0.03 µM | 2.4 ± 0.18 µM | 238 µM | 6.11 ± 0.53 µM | 0.92 ± 0.13 µM | – | – | – | – | 27.1 ± 4.2 µM | –
8 | CC(C)=CCc1c(O)ccc(C23Oc4cc(O)ccc4C4CC(C)=CC(c5c(O)cc(-c6cc7ccc(O)cc7o6)cc5O2)C43)c1O (stereo not shown) [Mulberrofuran F (7), mulberrofuran F] | – | – | 337 µM | 1.22 ± 0.05 µM | 8.63 ± 0.02 µM | 8.9 µM | Mixed | 1.84 µM | Mixed | 10.5 ± 0.25 µM | PTP1B Inhibition Mode (PTP1B [4]; listed as 7): mixed-type inhibition
9 | Oc1cc(O)cc(/C=C/c2ccc(O)cc2O)c1 [Oxyresveratrol (3), oxyresveratrol] | 5.38 ± 0.26 µM | 10.4 ± 0.39 µM | – | 2.58 ± 0.23 µM | 6.24 ± 0.06 µM | – | – | – | – | – | IC50 [1]: 265 µM; IC50 (PTP1B [6]): 72.9 ± 1.87 µM
10 | Cc1c(C)c2c(c(C)c1O)CCC(C)(C(=O)O)O2 (stereo not shown) [Trolox, 6-hydroxy-2,5,7,8-tetramethylchloman-2-carboxylic acid] | – | – | – | – | – | – | – | – | – | – | ABTS IC50 [7]: 2.72 ± 0.13 µg/mL
